Test results from ChEMBL document CHEMBL6134805, “Dual-acting β-Aminothiochromones: Design, synthesis, and evaluation as antimicrobial and anti-angiogenic agents” (2025).
≈ marks a conversion by molar mass, not a printed value. Calls of active or inactive are those of the source. The calls are words filed in the database; no cut-off is given here.

Key:
Pseudomonas aeruginosa [1] = experiment: Antimicrobial activity against Pseudomonas aeruginosa MTCC 11778 assessed as reduction in bacterial growth by serial dilution method; format: functional
Pseudomonas aeruginosa [2] = experiment: Bactericidal activity against Pseudomonas aeruginosa MTCC 11778 by serial dilution method; format: functional
Escherichia coli [3] = experiment: Bactericidal activity against Escherichia coli ATCC 10799 by serial dilution method; format: functional
Bacillus subtilis [4] = experiment: Bactericidal activity against Bacillus subtilis MTCC 13343 by serial dilution method; format: functional
Staphylococcus aureus [5] = experiment: Antimicrobial activity against Staphylococcus aureus ATCC 6538 assessed as reduction in bacterial growth by serial dilution method; format: functional
Staphylococcus aureus [6] = experiment: Bactericidal activity against Staphylococcus aureus ATCC 6538 by serial dilution method; format: functional
Bacillus subtilis [7] = experiment: Antimicrobial activity against Bacillus subtilis MTCC 13343 assessed as reduction in bacterial growth by serial dilution method; format: functional
HepG2 [8] = experiment: Antiangiogenic activity against human HepG2 cells assessed as reduction in area of wound coverage incubated for 24 to 72 hrs by scratch wound healing assay; format: functional, cell-based; details: dose 6.25-12.5 µg/ml, time 24-72 hrs
HepG2 [9] = experiment: Antiangiogenic activity against human HepG2 cells assessed as reduction in area of wound coverage at 6.25 ug/mL incubated for 24 to 72 hrs by scratch wound healing assay; format: functional, cell-based; details: dose 6.25 µg/ml, time 24-72 hrs
HepG2 [10] = experiment: Antiangiogenic activity against human HepG2 cells assessed as reduction in area of wound coverage at 12.5 ug/mL incubated for 24 to 72 hrs by scratch wound healing assay; format: functional, cell-based; details: dose 12.5 µg/ml, time 24-72 hrs
Candida albicans [11] = experiment: Antimicrobial activity against Candida albicans ATCC 24433 assessed as reduction in fungal growth by serial dilution method; format: functional
HepG2 [12] = experiment: Antiangiogenic activity against human HepG2 cells assessed as reduction in area of wound coverage at 6.25 to 12.5 ug/mL by scratch wound healing assay; format: functional, cell-based; details: dose 6.25-12.5 µg/ml, time 24-72 hrs
Escherichia coli [13] = experiment: Antimicrobial activity against Escherichia coli ATCC 10799 assessed as reduction in bacterial growth by serial dilution method; format: functional
Nakaseomyces glabratus = experiment: Antimicrobial activity against Candida glabrata MTCC 3019 assessed as reduction in fungal growth by serial dilution method; format: functional
HepG2 [14] = experiment: Cytotoxicity against human HepG2 cells assessed as reduction in cell viability up to 100 ug/mL by MTT assay relative to control; format: functional; details: dose <= 100 µg/ml; up to 100 µg/mL
HepG2 [15] = experiment: Antiangiogenic activity against human HepG2 cells assessed as reduction in area of wound coverage at 12.5 ug/mL incubated for 72 hrs by scratch wound healing assay relative to control; format: functional; design: scale not given: the % may be the effect or the level left; details: dose 12.5 µg/ml
HepG2 [16] = experiment: Cytotoxicity against human HepG2 cells assessed as reduction in cell viability at 25 to 100 ug/mL by MTT assay; format: functional, cell-based; details: dose 25-100 µg/ml
Bacillus subtilis [17] = experiment: Selectivity ratio of MBC for bactericidal activity against Bacillus subtilis MTCC 13343 to MIC for antimicrobial activity against Bacillus subtilis MTCC 13343; format: functional
HepG2 [18] = experiment: Antiangiogenic activity against human HepG2 cells assessed as reduction in area of wound coverage at 12.5 ug/mL incubated for 72 hrs by scratch wound healing assay; format: functional; details: dose 12.5 µg/ml
HepG2 [19] = experiment: Antiangiogenic activity against human HepG2 cells assessed as reduction in area of wound coverage at 12.5 ug/mL incubated for 48 hrs by scratch wound healing assay; format: functional; details: dose 12.5 µg/ml
HepG2 [20] = experiment: Antiangiogenic activity against human HepG2 cells assessed as reduction in area of wound coverage at 12.5 ug/mL incubated for 24 hrs by scratch wound healing assay; format: functional; details: dose 12.5 µg/ml
HepG2 [21] = experiment: Cytotoxicity against human HepG2 cells assessed as reduction in cell viability at 100 ug/mL by MTT assay relative to control; format: functional; details: dose 100 µg/ml
Candida albicans [22] = experiment: Fungicidal activity against Candida albicans ATCC 24433 by serial dilution method; format: functional
Escherichia coli [23] = experiment: Selectivity ratio of MBC for bactericidal activity against Escherichia coli ATCC 10799 to MIC for antimicrobial activity against Escherichia coli ATCC 10799; format: functional

Row | Compound | MIC (Pseudomonas aeruginosa [1]) | MBC (Pseudomonas aeruginosa [2]) | MBC (Bacillus subtilis [4]) | MIC (Staphylococcus aureus [5]) | MIC (Bacillus subtilis [7]) | Activity (HepG2 [8]) | Activity (HepG2 [9]) | Activity (HepG2 [10]) | MIC (Candida albicans [11]) | Activity (HepG2 [12]) | MIC (Escherichia coli [13]) | MIC (Nakaseomyces glabratus) | Activity (HepG2 [14]) | Activity (HepG2 [15]) | Activity (HepG2 [16]) | also measured
1 | O=C(O)c1cn(C2CC2)c2cc(N3CCNCC3)c(F)cc2c1=O [CIPROFLOXACIN] | 4 µg/mL (≈ 12.1 µM) | 32 µg/mL (≈ 96.6 µM) |  |  |  |  |  |  |  |  |  |  |  |  |  | MBC (Escherichia coli [3]): 64 µg/mL (≈ 193 µM)
2 | CC1(C)S[C@@H]2[C@H](NC(=O)[C@H](N)c3ccccc3)C(=O)N2[C@H]1C(=O)O [AMPICILLIN] |  |  | 32 µg/mL (≈ 91.6 µM) | 4 µg/mL (≈ 11.4 µM) | 8 µg/mL (≈ 22.9 µM) |  |  |  |  |  |  |  |  |  |  | MBC (Staphylococcus aureus [6]): 64 µg/mL (≈ 183 µM)
3 | O=c1c(C(NCc2cccc(C(F)(F)F)c2)c2ccccc2)csc2ccccc12 (stereo not drawn) | 32 µg/mL (≈ 75.2 µM) |  |  | 64 µg/mL (≈ 150 µM) | 64 µg/mL (≈ 150 µM) | Dose-dependent-effect | Active | Active | 32 µg/mL (≈ 75.2 µM) | Time-dependent-effect | 32 µg/mL (≈ 75.2 µM) | 64 µg/mL (≈ 150 µM) | <70% | 28.93% | Active | 
4 | O=c1c(C(NCc2ccccc2)c2ccccc2)csc2ccc(Cl)cc12 (stereo not drawn) | 8 µg/mL (≈ 20.4 µM) | 64 µg/mL (≈ 163 µM) | 64 µg/mL (≈ 163 µM) | 16 µg/mL (≈ 40.8 µM) | 4 µg/mL (≈ 10.2 µM) | Dose-dependent-effect | Active |  | 16 µg/mL (≈ 40.8 µM) | Time-dependent-effect | 16 µg/mL (≈ 40.8 µM) | 8 µg/mL (≈ 20.4 µM) |  | 18.24% | Active | Selectivity ratio (Bacillus subtilis [17]): 16; Activity (HepG2 [18]): 692000 µm²; Activity (HepG2 [19]): 683000 µm²; Activity (HepG2 [20]): 768000 µm²; Activity (HepG2 [21]): 80%
5 | OC(Cn1cncn1)(Cn1cncn1)c1ccc(F)cc1F [FLUCONAZOLE] |  |  |  |  |  |  |  |  | 8 µg/mL (≈ 26.1 µM) |  |  | 16 µg/mL (≈ 52.2 µM) |  |  |  | MFC (Candida albicans [22]): 64 µg/mL (≈ 209 µM)
6 | O=c1c(C(NCc2ccc(Cl)cc2)c2ccccc2)csc2ccccc12 (stereo not drawn) | 32 µg/mL (≈ 81.6 µM) |  |  | 64 µg/mL (≈ 163 µM) | 64 µg/mL (≈ 163 µM) | Dose-dependent-effect | Active | Active | 32 µg/mL (≈ 81.6 µM) | Time-dependent-effect | 32 µg/mL (≈ 81.6 µM) | 32 µg/mL (≈ 81.6 µM) | <70% | 25.83% | Active | 
7 | O=c1c(C(NCc2ccc(OC(F)(F)F)cc2)c2ccccc2)csc2ccccc12 (stereo not drawn) | 16 µg/mL (≈ 36.2 µM) | 64 µg/mL (≈ 145 µM) | 64 µg/mL (≈ 145 µM) | 8 µg/mL (≈ 18.1 µM) | 16 µg/mL (≈ 36.2 µM) | Dose-dependent-effect | Active | Active | 16 µg/mL (≈ 36.2 µM) | Time-dependent-effect | 8 µg/mL (≈ 18.1 µM) | 16 µg/mL (≈ 36.2 µM) | >70% | 31.19% | Active | Selectivity ratio (Bacillus subtilis [17]): 16; Selectivity ratio (Escherichia coli [23]): 4; MBC (Staphylococcus aureus [6]): 32 µg/mL (≈ 72.5 µM); MBC (Escherichia coli [3]): 32 µg/mL (≈ 72.5 µM)
